Where two headings read alike, the source gives them in different places.
Test system: HIV-1
Details: for time within which capacity to inactivate HIV-1 reverse transcriptase was lost / permanence of HIV-1 reverse transcriptase inactivation: 10 nM compound, HIV-1 in MT-2 cells
Protocol: MT-2 cells were contacted with HIV-1 TCID50, and 0, 2, 10, 20, or 50 nM of either DAPY (TMC120-R147681) or azido-DAPY were placed on 50μ/well plates. The plates were placed on ice for 20 minutes and then irradiated at 7.5 cm from a UV light source (UVP lamp model UVGL-25) that provides UV light at a wavelength of 365 nm and an intensity of 1.14 W/cm^2 for a period of 20 minutes. Studies of HIV-1 infected MT-2 cells contacted with DAPY but not UV irradiated, and HIV-1 infected MT-2 cells that were irradiated but not contacted with DAPY or azido-DAPY were also performed.
The inactivation of HIV was evaluated by a reverse transcriptase activity assay as described by Xu et al. (2009). The measurements are provided in counts per minute (cpm).

## Cc1cc(C)c(Nc2ccnc(Nc3ccc(C#N)cc3)n2)c(C)c1 [DAPY, dapivirine]
With UV light treatment
  time within which capacity to inactivate HIV-1 reverse transcriptase was lost: ≤ 16 days
With UV light
  permanence of HIV-1 reverse transcriptase inactivation: inability to produce a permanent inactivation
Without UV light treatment
  time within which capacity to inactivate HIV-1 reverse transcriptase was lost: ≤ 16 days
Without UV light
  permanence of HIV-1 reverse transcriptase inactivation: inability to produce a permanent inactivation
Compound + UV light exposure, time-exposure studies
  inactivation of HIV-1 in time-exposure studies: not observed
